Measurements as given in US5112944A, “Cyclic tetrapeptide and process for preparing the same” (Shionogi & Co., Ltd., priority 1989, dated 1992).
Where a SMILES comes first, the peptide text is derived from it. [ ]: non-standard residue; d: D form. Aoe = N[C@@H](CCCCCC(=O)[C@@H]1CO1)C(=O)O; dPip = O=C(O)[C@H]1CCCCN1

Key:
[1] = system: NIH3T3 cells transformed with sis oncogene; assay: Detransformation activity (return of transformed cells to normal flat morphology); format: cell-based
Method: (§1) The employed culture solution was prepared by adding 9.5 g of DALBECCO'S EAGLE MEM medium (made by NISSUI SEIYAKU CO., LTD.) and 20 ml of 7% sodium bicarbonate to 1 l of distilled water and then adding fetal bovine serum (made by Flow Laboratories, Inc., U.S.A.) to be 10% by volume at the final concentration.
(§2) To each well of a 12-well plastic dish made by Flow Laboratories, Inc., 2 ml of the above-mentioned culture solution, 2×10^4 cells/ml of NIH3T3 cells transformed with sis oncogene (provided by National Cancer Institute of the U.S.; Science, 218, 1131 (1982)) and each test compound (RF-1023-A or RF-1023-B) in each concentration (5 to 400 ng/ml) were added and cultured at 37° C. in 5% CO2 incubator. Twenty-four hours later the morphology of the cells was observed and detransformation activity (activity for inhibiting transformation of NIH3T3 cells transformed with the oncogene and returning to normal flat morphology of cells) was estimated. Two days after the incubation, cells subjected to the medium containing RF-1023-A were dispersed with 0.05% trypsin, and the cell number was measured by means of hemocytometer.

[2] = system: NIH3T3 cells transformed with sis oncogene; assay: Cell number / cell proliferation of transformed cells (hemocytometer); format: cell-based; details: for Cell number: 2 days after the incubation; for Percentage of increase: 2 days, untreated = 100
Method: as §1, §2

[3] = 24 hours, lowest concentration tested

| Compound | Concentration at which detransformation activity is shown ([1]; same experiment system) [ng/mL] | Concentration at which detransformation activity is shown [1, 3] [ng/mL] | Cell number ([2]; 5 ng/ml test compound) | Percentage of increase ([2]; 5 ng/ml test compound) [%] | Cell number ([2]; 50 ng/ml test compound) | Percentage of increase ([2]; 50 ng/ml test compound) [%] | Cell number ([2]; 100 ng/ml test compound) | Percentage of increase ([2]; 100 ng/ml test compound) [%] | Cell number ([2]; 200 ng/ml test compound) | Percentage of increase ([2]; 200 ng/ml test compound) [%] | Cell number ([2]; 400 ng/ml test compound) | Percentage of increase ([2]; 400 ng/ml test compound) [%] |
| --- | --- | --- | --- | --- | --- | --- | --- | --- | --- | --- | --- | --- |
| CC(=O)NCCCCCCNC(C)=O [hexamethylene bisacetamide, reference compound] | 3e+06 |  |  |  |  |  |  |  |  |  |  |  |
| O=C1N[C@@H](Cc2ccccc2)C(=O)N2CCCC[C@@H]2C(=O)N[C@@H](CCCCCC(=O)[C@@H]2CO2)C(=O)N[C@H]1Cc1ccccc1 [RF-1023-A] (cyclo([Aoe]FF[dPip])) |  | 5 | 3.8 × 10^5 | 35 | 3.4 × 10^5 | 29 | 1.5 × 10^5 | 0 | 1.1 × 10^5 | -6 | 1.1 × 10^5 | -6 |
| O=C1N[C@@H](Cc2ccccc2)C(=O)N2CCC[C@@H]2C(=O)N[C@@H](CCCCCC(=O)[C@@H]2CO2)C(=O)N[C@H]1Cc1ccccc1 [RF-1023-B] (cyclo(FF[dP][Aoe])) |  | 5 |  |  |  |  |  |  |  |  |  |  |
